The target in assay [1] is T1, IRAK4 (Homo sapiens, UniProt Q9NWZ3).
T1 sequence (Q9NWZ3 1-460): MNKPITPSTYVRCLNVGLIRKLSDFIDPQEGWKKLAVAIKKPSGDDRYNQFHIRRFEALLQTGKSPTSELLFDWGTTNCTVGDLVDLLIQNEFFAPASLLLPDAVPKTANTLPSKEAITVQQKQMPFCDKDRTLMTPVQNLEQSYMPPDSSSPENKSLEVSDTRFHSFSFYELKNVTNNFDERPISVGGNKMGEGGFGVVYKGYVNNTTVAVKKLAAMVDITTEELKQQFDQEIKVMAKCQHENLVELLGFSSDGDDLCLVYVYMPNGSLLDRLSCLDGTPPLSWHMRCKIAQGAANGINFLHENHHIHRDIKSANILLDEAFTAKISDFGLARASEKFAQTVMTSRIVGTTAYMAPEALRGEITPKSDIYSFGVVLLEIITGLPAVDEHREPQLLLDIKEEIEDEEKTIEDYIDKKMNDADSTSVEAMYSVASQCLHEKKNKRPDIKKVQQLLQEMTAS
Kind of assay: hPBMC IRAK4 degradation flow assay (monocytes). It counts as cell-based. More on the design: endogenous in cells; host or cells: human PBMCs (monocytes, CD14 positive gate). Particulars: CD14 positive monocytes, 20 h, read-out: hPBMC monocyte DC50 at 20 h. Here is the method: In the hPBMC IRAK4 degradation flow assay, frozen PBMCs were thawed into RPMI with 10% FBS and allowed to recover. On the same day as thawed, PBMCs were plated in 96 well plate, 90 μL per well. Compound plates were prepared and a 10 point, 5-fold dilution was performed with a final DMSO concentration of 0.1%. Compound 10 μL per well was added, sealed and incubated at 37° C., 5% CO2 for 20 hours (for 4 hour treatment, compounds were prepared and added the following day). Following the treatment incubation period (day 1), 1.6% PFA was added to PBMC plate and placed on plate shaker for 30 seconds and incubated for 10 mins at room temperature. Cells were spun down and washed two times with PBS/0.5% BSA, aspirated to pellet and placed into −80° C. freezer until further processing for flow. On the flow run day, PBMC plates were thawed and samples were transferred to PCR plates. The pre-perm staining cocktail (CD3 Ax488/CD8 BUV805/CD14 BUV395/CD16/56 BV711/CD19 BV785) was added to samples and incubated for 30 minutes at room temperature. Samples were washed two times and permeabilized with methanol for 10 minutes at 4° C. Samples were washed two times and the post-perm staining cocktail (CD4 PE/IRAK4 Ax647 BD #560315) was added and incubated for 30 minutes at room temperature. Samples were washed two times with PBS/BSA and run on a BD LSRFortessa. Mononuclear cells are gated by SSCH/FSCH and single cells. Monocytes are then gated through CD14 positive gate and lymphocytes are gated through CD14 negative gate. To determine absolute DC50 and max degradation values, MFI values were normalized to DMSO max and 20 hour 10 µM min control. Twenty hour dose curves were calculated using a 4 parameter logistic regression curve fit, no constraints (Top doses were removed if hook effects were observed and the bottom was constrained to 0).
(§1) IRAK4 MSD degradation in OCI-LY10 results at 4 and 24 hrs and hPBMC at 20 hrs for compounds of the invention are presented in Table 3. The letter codes for IRAK4 DC50 include: A (<0.1 μM), B (0.1-1.0 μM), C(>1.0-10.0 μM), D (>10.0 μM or not determined).

The target in assay [2] is T1, IRAK4. Kind of assay: IRAK4 degradation in OCI-LY10 (MSD, Meso Scale Discovery). In kind it is cell-based. On the set-up: endogenous in cells; host or cells: OCI-LY10. The settings on record: OCI-LY10 cells, 24 h. Here is the method:
Degradation of IRAK4 in OCI-LY10 was quantitatively measured using Meso Scale Discovery technology. OCI-LY10 cells were seeded in 96-well plates (Corning 3799) with a density of 300,000 cells per well in 100 μL fresh media. Compounds were then added to the assay plates with a final top concentration of 1 to 10 μM in a 1:3 dilution series with total of 8 doses. The assay plates were then incubated for 4 to 24 hours at 37° C. under 5% CO2. The assay plates were then centrifuged for 5 minutes and the cell pellets were treated with 100 μL/well RIPA lysis buffer (Boston BioProducts BP-115D) with proteinase inhibitors. To prepare MSD assay plates (Meso Scale Discovery Catalog number L15XA-3), the plates were coated with 2 ug/mL capture antibody (mouse Anti-IRAK4 antibody [2H9], ab119942) in PBS, at 40 μL/well. The plates were then incubated overnight at […], washed 3 times with 150 μL/well TBST buffer (Cell Signaling Technology, Catalog number 9997S) and blocked with 150 μL/well blocking buffer (Meso Scale Discovery Catalog number R^93BA-4). Cell lysates were then added to MSD assay plates and the plates were incubated at room temperature for 1 hour. The plates were then washed 3 times with 150 μL/well TBST buffer and 25 μL/well primary detection antibody (rabbit Anti-IRAK4 antibody [Y279], from Abcam. Catalog number ab32511, 1 μg/mL). The assay plates were then incubated at room temperature for 1 hour, washed 3 times with 150 μL/well TBST buffer and 25 μL/well secondary detection antibody, SULFO-TAG anti-rabbit antibody were added (anti-rabbit antibody from Meso Scale Discovery, Catalog number R^32AB-1, 1 μg/mL). The assay plates were then incubated at room temperature for 1 hour, washed 3 times with 150 μL/well TBST buffer, and 150 μL/well MSD reading buffer (Meso Scale Discovery catalog number R^92TC-2) was added. The plates were then analyzed by a MSD reader (Meso Scale Discovery, Model Quick Plex SQ 120). The data was then analyzed by software Prism 7.0 from GraphPad and the dose-depended IRAK4 degradation were fit using a three-parameter logistic equation to calculate DC50.
as §1

Results on 21 compounds are retold here after patent US20250205342A1, “IRAK DEGRADERS AND USES THEREOF” (Kymera Therapeutics, Inc., priority 2022, published 2025).

Molecules are shown by their SMILES.

As a reminder, the DC50 is the concentration giving 50% degradation. With `O=C(O)Cn1cc(NC(=O)[C@H]2CCCN(c3cncc(OCCCCNC[C@H]4CC[C@H](n5cc(NC(=O)c6cnn7ccc(N8C[C@H]9C[C@@H]8CO9)nc67)c(C(F)F)n5)CC4)c3)C2)ccc1=O` [Compound I-46], the half-maximal degradation concentration (DC50) at IRAK4 [1] and at IRAK4 [2] was above 10 µM in each case.

As to `CCOC(=O)Cn1cc(NC(=O)[C@H]2CCCN(c3cncc(OCCOCCOCCOCCOCCNC[C@H]4CC[C@H](n5cc(NC(=O)c6cnn7ccc(N8C[C@H]9C[C@@H]8CO9)nc67)c(C(F)F)n5)CC4)c3)C2)ccc1=O` [Compound I-47], the DC50 on IRAK4 [1] and on IRAK4 [2] was above 10 µM in each case.

For the compound `CCOC(=O)Cn1cc(NC(=O)[C@H]2CCCN(c3cncc(OCCNC[C@H]4CC[C@H](n5cc(NC(=O)c6cnn7ccc(N8C[C@H]9C[C@@H]8CO9)nc67)c(C(F)F)n5)CC4)c3)C2)ccc1=O` [Compound I-48], the DC50 is 1 to 10 µM at IRAK4 [1] and above 10 µM at IRAK4 [2].

`COC(=O)Cn1cc(NC(=O)c2cccc(-c3cncc(CCCCCCCCCNC[C@H]4CC[C@H](n5cc6cc(NC(=O)c7cccc(C(F)(F)F)n7)c(C(C)(C)O)cc6n5)CC4)c3)c2)ccc1=O` [Compound I-49]: the DC50 on IRAK4 [1] and on IRAK4 [2] was 0.1 to 1 µM in each case.

As for `CC(C)(O)c1cc2nn([C@H]3CC[C@H](CNCCCCCCCCCc4cccc5c(-c6cccc(C(=O)Nc7ccc(=O)n(CC(=O)O)c7)c6)cncc45)CC3)cc2cc1NC(=O)c1cccc(C(F)(F)F)n1` [Compound I-50], the 50% degradation concentration (DC50) on IRAK4 [1] and on IRAK4 [2] was above 10 µM in each case.

Take `CC(C)(O)c1cc2nn([C@H]3CC[C@H](CNCCCCCCc4cccc5c(-c6cccc(C(=O)Nc7ccc(=O)n(CC(=O)O)c7)c6)cncc45)CC3)cc2cc1NC(=O)c1cccc(C(F)(F)F)n1` [Compound I-51]: the DC50 at IRAK4 [1] and on IRAK4 [2] was above 10 µM in each case.

In the case of `CC(C)(O)c1cc2nn([C@H]3CC[C@H](CNCCCCCCc4ccc5c(-c6cccc(C(=O)Nc7ccc(=O)n(CC(=O)O)c7)c6)cncc5c4)CC3)cc2cc1NC(=O)c1cccc(C(F)(F)F)n1` [Compound I-52], the 50% degradation concentration (DC50) at IRAK4 [1] and at IRAK4 [2] was above 10 µM throughout.

In the case of `CC(C)(O)c1cc2nn([C@H]3CC[C@H](CNCCCCCCCCCc4ccc5c(-c6cccc(C(=O)Nc7ccc(=O)n(CC(=O)O)c7)c6)cncc5c4)CC3)cc2cc1NC(=O)c1cccc(C(F)(F)F)n1` [Compound I-53], the half-maximal degradation concentration (DC50) on IRAK4 [1] and at IRAK4 [2] was above 10 µM throughout.

Regarding `COC(=O)Cn1cc(NC(=O)c2cccc(-c3cncc4c(CCCCCCCCCNC[C@H]5CC[C@H](n6cc7cc(NC(=O)c8cccc(C(F)(F)F)n8)c(C(C)(C)O)cc7n6)CC5)cccc34)c2)ccc1=O` [Compound I-54], the DC50 on IRAK4 [1] and at IRAK4 [2] was 1 to 10 µM each time.

For the compound `COC(=O)Cn1cc(NC(=O)c2cccc(-c3cncc4cc(CCCCCCCCCNC[C@H]5CC[C@H](n6cc7cc(NC(=O)c8cccc(C(F)(F)F)n8)c(C(C)(C)O)cc7n6)CC5)ccc34)c2)ccc1=O` [Compound I-55], the DC50 at IRAK4 [1] and at IRAK4 [2] was above 10 µM throughout.

As to `COC(=O)Cn1cc(NC(=O)c2cccc(-c3cncc4c(CCCCCCNC[C@H]5CC[C@H](n6cc7cc(NC(=O)c8cccc(C(F)(F)F)n8)c(C(C)(C)O)cc7n6)CC5)cccc34)c2)ccc1=O` [Compound I-56], the DC50 on IRAK4 [1] and on IRAK4 [2] was above 10 µM throughout.

Turning to `COC(=O)Cn1cc(NC(=O)c2cccc(-c3cncc4cc(CCCCCCNC[C@H]5CC[C@H](n6cc7cc(NC(=O)c8cccc(C(F)(F)F)n8)c(C(C)(C)O)cc7n6)CC5)ccc34)c2)ccc1=O` [Compound I-57], the DC50 at IRAK4 [1] and at IRAK4 [2] was 1 to 10 µM in each case.

Consider `CC(C)(O)c1cc2nn([C@H]3CC[C@H](CNCCCCCCn4ccc5c(C(=O)Nc6ccc(=O)n(CC(=O)O)c6)cccc54)CC3)cc2cc1NC(=O)c1cccc(C(F)(F)F)n1` [Compound I-58], for which the DC50 on IRAK4 [1] and at IRAK4 [2] was above 10 µM throughout.

Consider `O=C(O)Cn1cc(NC(=O)c2cccc3c2ccn3CCCCCCNC[C@H]2CC[C@H](n3cc(NC(=O)c4cnn5ccc(N6C[C@H]7C[C@@H]6CO7)nc45)c(C(F)F)n3)CC2)ccc1=O` [Compound I-59], for which the DC50 at IRAK4 [1] and at IRAK4 [2] was above 10 µM throughout.

With `CC(C)(O)c1cc2nn([C@H]3CC[C@H](CNCCCCCCCCCC4=CC(c5cccnc5)CC(C(=O)Nc5ccc(=O)n(CC(=O)O)c5)=C4)CC3)cc2cc1NC(=O)c1cccc(C(F)(F)F)n1` (stereo partly drawn) [Compound I-60], the DC50 at IRAK4 [1] and at IRAK4 [2] was above 10 µM each time.

Take `CCOC(=O)Cn1cc(NC(=O)c2cccc3c2ccn3CCCCCCNC[C@H]2CC[C@H](n3cc(NC(=O)c4cnn5ccc(N6C[C@H]7C[C@@H]6CO7)nc45)c(C(F)F)n3)CC2)ccc1=O` [Compound I-61]: the results for the 50% degradation concentration (DC50) at IRAK4 [1] and on IRAK4 [2] were 1 to 10 µM and above 10 µM, respectively.

On to `COc1cc(-c2ccc(CCCCCCCCCNC[C@H]3CC[C@H](n4cc(NC(=O)c5cnn6ccc(N7C[C@H]8C[C@@H]7CO8)nc56)c(C(F)F)n4)CC3)cc2)ccc1C(=O)Nc1ccc(=O)n(CC(=O)O)c1` [Compound I-62], for which the DC50 at IRAK4 [1] and on IRAK4 [2] was above 10 µM each time.

For the compound `COc1cc(-c2ccc(F)c(CCCCCCCCCNC[C@H]3CC[C@H](n4cc5cc(NC(=O)c6cccc(C(F)(F)F)n6)c(C(C)(C)O)cc5n4)CC3)c2)ccc1C(=O)Nc1ccc(=O)n(CC(=O)O)c1` [Compound I-63], the DC50 at IRAK4 [1] and on IRAK4 [2] was above 10 µM in each case.

Turning to `CCOC(=O)Cn1cc(NC(=O)c2ccc(-c3ccc(F)c(CCCCCCCCCNC[C@H]4CC[C@H](n5cc6cc(NC(=O)c7cccc(C(F)(F)F)n7)c(C(C)(C)O)cc6n5)CC4)c3)cc2OC)ccc1=O` [Compound I-64], the figures for the DC50 at IRAK4 [1] and on IRAK4 [2] were above 10 µM and 1 to 10 µM, respectively.

`COc1cc(-c2ccc(F)c(CCCCCCCCCNC[C@H]3CC[C@H](n4cc(NC(=O)c5cnn6ccc(N7C[C@H]8C[C@@H]7CO8)nc56)c(C(F)F)n4)CC3)c2)ccc1C(=O)Nc1ccc(=O)n(CC(=O)O)c1` [Compound I-65]: the DC50 at IRAK4 [1] and on IRAK4 [2] was above 10 µM each time.

`CCOC(=O)Cn1cc(NC(=O)c2ccc(-c3ccc(F)c(CCCCCCCCCNC[C@H]4CC[C@H](n5cc(NC(=O)c6cnn7ccc(N8C[C@H]9C[C@@H]8CO9)nc67)c(C(F)F)n5)CC4)c3)cc2OC)ccc1=O` [Compound I-66]: the results for the DC50 on IRAK4 [1] and on IRAK4 [2] were above 10 µM and 1 to 10 µM, respectively.
